Article PMC5218480 (PLoS ONE, 2017)

Test system: MV-4-11 cells
Test: Gene expression microarray analysis (Affymetrix PrimeView) and GSEA
Assay type: cell-based, human
Design: RFU PODN (11730768_x_at) / Fold change /veh PODN (11730768_x_at) / RFU LINC00158 (11744669_a_at) / Fold change /veh LINC00158 (11744669_a_at) / RFU DUSP10 (11751237_a_at) / Fold change /veh DUSP10 (11751237_a_at) / RFU ID3 (11757404_x_at) / Fold change /veh ID3 (11757404_x_at) / RFU PLEKHG5 (11737974_s_at) / Fold change /veh PLEKHG5 (11737974_s_at) / RFU LRRC4B (11730491_at) / Fold change /veh LRRC4B (11730491_at) / RFU GIMAP4 (11747438_a_at) / Fold change /veh GIMAP4 (11747438_a_at) / RFU KRT8 (11758183_x_at) / Fold change /veh KRT8 (11758183_x_at) / RFU CNN1 (11734310_a_at) / Fold change /veh CNN1 (11734310_a_at) / RFU VPS37D (11726825_at) / Fold change /veh VPS37D (11726825_at) / RFU C10orf10 (11716522_x_at) / Fold change /veh C10orf10 (11716522_x_at) / RFU KIR2DL2 /// KIR2DL4 /// KIR2DL5A /// KIR2DL5B /// KIR2DS1 /// KIR2DS2 /// KIR2DS3 /// KIR2DS4 /// KIR3DL3 /// KIR3DL3 /// KIR3DS1 (11738374_at) / Fold change /veh KIR2DL2 /// KIR2DL4 /// KIR2DL5A /// KIR2DL5B /// KIR2DS1 /// KIR2DS2 /// KIR2DS3 /// KIR2DS4 /// KIR3DL3 /// KIR3DL3 /// KIR3DS1 (11738374_at) / RFU C1QL1 (11718748_at) / Fold change /veh C1QL1 (11718748_at) / RFU TMPRSS4 (11747572_a_at) / Fold change /veh TMPRSS4 (11747572_a_at) / RFU HAMP (11756126_x_at) / Fold change /veh HAMP (11756126_x_at) / RFU RNFT2 (11725882_a_at) / Fold change /veh RNFT2 (11725882_a_at) / RFU NR4A2 (11747474_a_at) / Fold change /veh NR4A2 (11747474_a_at) / RFU ABCC12 (11746883_a_at) / Fold change /veh ABCC12 (11746883_a_at) / RFU TMEM136 (11760407_x_at) / Fold change /veh TMEM136 (11760407_x_at) / RFU CLDN22 /// WWC2 (11732394_at) / Fold change /veh CLDN22 /// WWC2 (11732394_at) / RFU HLA-DPB1 (11760878_x_at) / Fold change /veh HLA-DPB1 (11760878_x_at) / RFU SPINT1 (11716480_a_at) / Fold change /veh SPINT1 (11716480_a_at) / RFU GAP43 (11754022_s_at) / Fold change /veh GAP43 (11754022_s_at) / RFU A4GNT (11735810_at) / Fold change /veh A4GNT (11735810_at) / RFU PRB3 (11715151_x_at) / Fold change /veh PRB3 (11715151_x_at) / RFU TUBB4B (11761932_at) / Fold change /veh TUBB4B (11761932_at) / RFU CAPN14 (11732068_a_at) / Fold change /veh CAPN14 (11732068_a_at) / RFU TMCC2 (11721928_a_at) / Fold change /veh TMCC2 (11721928_a_at) / RFU IRGQ (11745062_a_at) / Fold change /veh IRGQ (11745062_a_at) / RFU FAM174B (11720279_a_at) / Fold change /veh FAM174B (11720279_a_at) / RFU TMPRSS4 (11748680_a_at) / Fold change /veh TMPRSS4 (11748680_a_at) / RFU FAM212B (11763350_a_at) / Fold change /veh FAM212B (11763350_a_at) / RFU PLEKHG5 (11743358_a_at) / Fold change /veh PLEKHG5 (11743358_a_at) / RFU ZSCAN30 (11745921_a_at) / Fold change /veh ZSCAN30 (11745921_a_at) / RFU CMKLR1 (11741424_a_at) / Fold change /veh CMKLR1 (11741424_a_at) / RFU LOC101060620 /// MAPK8IP1 (11723275_at) / Fold change /veh LOC101060620 /// MAPK8IP1 (11723275_at) / RFU SPTSSB (11747773_x_at) / Fold change /veh SPTSSB (11747773_x_at) / RFU PRSS12 (11739890_at) / Fold change /veh PRSS12 (11739890_at) / RFU BIN1 (11741810_x_at) / Fold change /veh BIN1 (11741810_x_at) / RFU WNT11 (11732464_a_at) / Fold change /veh WNT11 (11732464_a_at) / RFU C10orf10 (11716521_a_at) / Fold change /veh C10orf10 (11716521_a_at) / RFU C5orf56 (11738089_at) / Fold change /veh C5orf56 (11738089_at) / RFU CYB561 (11721691_x_at) / Fold change /veh CYB561 (11721691_x_at) / RFU ANKRD19P (11752326_a_at) / Fold change /veh ANKRD19P (11752326_a_at) / RFU OR2T12 /// OR2T33 /// OR2T8 (11738714_s_at) / Fold change /veh OR2T12 /// OR2T33 /// OR2T8 (11738714_s_at) / RFU VCAN (11748164_a_at) / Fold change /veh VCAN (11748164_a_at) / RFU JSRP1 (11732532_at) / Fold change /veh JSRP1 (11732532_at) / RFU KRTAP10-11 (11738290_x_at) / Fold change /veh KRTAP10-11 (11738290_x_at) / RFU MYO3A (11730013_a_at) / Fold change /veh MYO3A (11730013_a_at) / RFU EBF3 (11725865_a_at) / Fold change /veh EBF3 (11725865_a_at) / RFU CAMK2N1 (11719241_x_at) / Fold change /veh CAMK2N1 (11719241_x_at) / RFU C5orf56 (11738088_a_at) / Fold change /veh C5orf56 (11738088_a_at) / RFU OLFML3 (11715873_a_at) / Fold change /veh OLFML3 (11715873_a_at) / RFU LOC100653217 /// NTM (11731650_a_at) / Fold change /veh LOC100653217 /// NTM (11731650_a_at) / RFU MAPK11 (11762145_a_at) / Fold change /veh MAPK11 (11762145_a_at) / RFU FIZ1 (11724087_x_at) / Fold change /veh FIZ1 (11724087_x_at) / RFU OASL (11726364_x_at) / Fold change /veh OASL (11726364_x_at) / RFU SOX15 (11748057_x_at) / Fold change /veh SOX15 (11748057_x_at) / RFU CD79A (11719716_a_at) / Fold change /veh CD79A (11719716_a_at) / RFU HIST1H1D (11736915_at) / Fold change /veh HIST1H1D (11736915_at) / RFU CASKIN2 (11723855_a_at) / Fold change /veh CASKIN2 (11723855_a_at) / RFU LOC730098 (11760151_x_at) / Fold change /veh LOC730098 (11760151_x_at) / RFU OR4N2 (11742367_at) / Fold change /veh OR4N2 (11742367_at) / RFU PRRT2 (11749266_a_at) / Fold change /veh PRRT2 (11749266_a_at) / RFU SNX32 (11753110_a_at) / Fold change /veh SNX32 (11753110_a_at) / RFU CDHR5 (11726645_a_at) / Fold change /veh CDHR5 (11726645_a_at) / RFU RCAN1 (11760418_a_at) / Fold change /veh RCAN1 (11760418_a_at) / RFU FAM167A (11723789_a_at) / Fold change /veh FAM167A (11723789_a_at) / RFU FAM26E (11764081_at) / Fold change /veh FAM26E (11764081_at) / RFU ISYNA1 (11749810_s_at) / Fold change /veh ISYNA1 (11749810_s_at) / RFU ACY1 (11761880_at) / Fold change /veh ACY1 (11761880_at) / RFU 11764098_at / Fold change /veh 11764098_at / RFU SAMD14 (11745864_x_at) / Fold change /veh SAMD14 (11745864_x_at) / RFU NPB (11741838_a_at) / Fold change /veh NPB (11741838_a_at) / RFU TMPRSS6 (11731388_a_at) / Fold change /veh TMPRSS6 (11731388_a_at) / RFU KRTAP10-2 (11738614_at) / Fold change /veh KRTAP10-2 (11738614_at) / RFU ARHGAP8 /// PRR5-ARHGAP8 (11727945_x_at) / Fold change /veh ARHGAP8 /// PRR5-ARHGAP8 (11727945_x_at) / RFU KRTAP5-7 /// NADSYN1 (11734609_at) / Fold change /veh KRTAP5-7 /// NADSYN1 (11734609_at) / RFU RASL12 (11751679_a_at) / Fold change /veh RASL12 (11751679_a_at) / RFU CDKN2B (11736163_a_at) / Fold change /veh CDKN2B (11736163_a_at) / RFU PRF1 (11729649_at) / Fold change /veh PRF1 (11729649_at) / RFU, ZNF638 /// ZNF638-IT1 / Fold change vs veh, ZNF638 /// ZNF638-IT1 / RFU, PANK3 / Fold change vs veh, PANK3 / RFU, SH3YL1 / Fold change vs veh, SH3YL1 / RFU, ZEB2 / Fold change vs veh, ZEB2 / RFU, NRIP1 / Fold change vs veh, NRIP1 / RFU, PTTG1IP / Fold change vs veh, PTTG1IP / RFU, CAPN2 / Fold change vs veh, CAPN2 / RFU, MED14 / Fold change vs veh, MED14 / RFU, SNORA58 / Fold change vs veh, SNORA58 / RFU, C1orf63 / Fold change vs veh, C1orf63 / RFU, LRRFIP1 / Fold change vs veh, LRRFIP1 / RFU, NDUFAF7 / Fold change vs veh, NDUFAF7 / RFU, SLC12A2 / Fold change vs veh, SLC12A2 / RFU, IBTK / Fold change vs veh, IBTK / RFU, ESF1 / Fold change vs veh, ESF1 / Fold change vs veh, TMEM50B / RFU, TAOK1 / Fold change vs veh, TAOK1 / RFU, ACBD3 / Fold change vs veh, ACBD3 / RFU, TMA16 / Fold change vs veh, TMA16 / RFU, RWDD3 / Fold change vs veh, RWDD3 / RFU, BCAT1 / Fold change vs veh, BCAT1 / RFU, EDEM3 / Fold change vs veh, EDEM3 / RFU, TMEM33 / Fold change vs veh, TMEM33 / RFU, WDR75 / Fold change vs veh, WDR75 / RFU, AHCTF1 / Fold change vs veh, AHCTF1 / RFU, TFRC / Fold change vs veh, TFRC / RFU, ZDHHC17 / Fold change vs veh, ZDHHC17 / RFU, NOM1 / Fold change vs veh, NOM1 / RFU, ARL8B / Fold change vs veh, ARL8B / RFU, ZBTB11 / Fold change vs veh, ZBTB11 / RFU, TAMM41 / Fold change vs veh, TAMM41 / RFU, KIAA1704 /// LOC100996395 / Fold change vs veh, KIAA1704 /// LOC100996395 / RFU, ING1 / Fold change vs veh, ING1 / RFU, TRMT61B / Fold change vs veh, TRMT61B / RFU, FUBP3 / Fold change vs veh, FUBP3 / RFU, TP53 / Fold change vs veh, TP53 / RFU, TNKS2 / Fold change vs veh, TNKS2 / RFU, ZFP14 / Fold change vs veh, ZFP14 / RFU, ACTR2 / Fold change vs veh, ACTR2 / RFU, PPP3R1 / Fold change vs veh, PPP3R1 / RFU, PIK3R1 / Fold change vs veh, PIK3R1 / RFU, HNRNPA1 / Fold change vs veh, HNRNPA1 / RFU, RNF170 / Fold change vs veh, RNF170 / RFU, ZNF28 / Fold change vs veh, ZNF28 / RFU, RNGTT / Fold change vs veh, RNGTT / RFU, OGT / Fold change vs veh, OGT / RFU, BRD1 / Fold change vs veh, BRD1 / RFU, MARS / Fold change vs veh, MARS / RFU, ZNF655 / Fold change vs veh, ZNF655 / RFU, FAHD1 / Fold change vs veh, FAHD1 / RFU, BDP1 / Fold change vs veh, BDP1 / RFU, LRRCC1 / Fold change vs veh, LRRCC1 / RFU, ARID1A / Fold change vs veh, ARID1A / RFU, ZNF146 / Fold change vs veh, ZNF146 / RFU, ZNF330 / Fold change vs veh, ZNF330 / RFU, GPN3 / Fold change vs veh, GPN3 / RFU, C9orf123 / Fold change vs veh, C9orf123 / RFU, N4BP2L2 / Fold change vs veh, N4BP2L2 / RFU, ARFIP1 / Fold change vs veh, ARFIP1 / RFU, FAM179B / Fold change vs veh, FAM179B / RFU, BCL10 / Fold change vs veh, BCL10 / RFU, UHRF1BP1L / Fold change vs veh, UHRF1BP1L / RFU, BET1 / Fold change vs veh, BET1 / RFU, CNOT2 / Fold change vs veh, CNOT2 / RFU, ZNF268 / Fold change vs veh, ZNF268 / Fold change vs veh, ZNF507 / RFU, DGCR2 / Fold change vs veh, DGCR2 / RFU, WDSUB1 / Fold change vs veh, WDSUB1 / Fold change vs veh, HSP90B1 /// MIR3652 / RFU, ADSS / Fold change vs veh, ADSS / RFU, GK / Fold change vs veh, GK / RFU, ZNF148 / Fold change vs veh, ZNF148 / RFU, TAF9 / Fold change vs veh, TAF9 / RFU, SLC1A5 / Fold change vs veh, SLC1A5 / RFU, SLMO2 / Fold change vs veh, SLMO2 / RFU, ABCC4 / Fold change vs veh, ABCC4 / RFU, LOC101060439 /// RAP1B / Fold change vs veh, LOC101060439 /// RAP1B / RFU, RFX7 / Fold change vs veh, RFX7 / RFU, GTPBP10 / Fold change vs veh, GTPBP10 / RFU, CNEP1R1 / Fold change vs veh, CNEP1R1 / RFU, BIVM-ERCC5 /// ERCC5 / Fold change vs veh, BIVM-ERCC5 /// ERCC5 / RFU, ILF3 / Fold change vs veh, ILF3 / RFU 11762660_at / Fold change /veh 11762660_at / RFU VCAN (11757783_s_at) / Fold change /veh VCAN (11757783_s_at) / RFU DDX43 (11728927_at) / Fold change /veh DDX43 (11728927_at) / RFU KRT8 (11758188_x_at) / Fold change /veh KRT8 (11758188_x_at) / RFU NKD1 (11759106_at) / Fold change /veh NKD1 (11759106_at) / RFU SRD5A1 (11742802_a_at) / Fold change /veh SRD5A1 (11742802_a_at) / RFU TPSAB1 /// TPSB2 (11721975_s_at) / Fold change /veh TPSAB1 /// TPSB2 (11721975_s_at) / RFU GSTM3 (11746129_a_at) / Fold change /veh GSTM3 (11746129_a_at) / RFU IL23R (11737362_x_at) / Fold change /veh IL23R (11737362_x_at) / RFU TMEM51 (11727254_a_at) / Fold change /veh TMEM51 (11727254_a_at) / RFU PIWIL2 (11732686_x_at) / Fold change /veh PIWIL2 (11732686_x_at) / RFU ORM1 (11744905_x_at) / Fold change /veh ORM1 (11744905_x_at) / RFU CCDC152 (11743942_at) / Fold change /veh CCDC152 (11743942_at) / RFU ECM1 (11717891_a_at) / Fold change /veh ECM1 (11717891_a_at) / RFU IL23R (11748794_a_at) / Fold change /veh IL23R (11748794_a_at) / RFU TNFAIP8L3 (11732012_x_at) / Fold change /veh TNFAIP8L3 (11732012_x_at) / RFU MBOAT4 (11741988_at) / Fold change /veh MBOAT4 (11741988_at) / RFU 11764193_at / Fold change /veh 11764193_at / RFU TMEM53 (11763286_at) / Fold change /veh TMEM53 (11763286_at) / RFU MAGEB2 (11727129_at) / Fold change /veh MAGEB2 (11727129_at) / RFU TMEM200A (11744735_a_at) / Fold change /veh TMEM200A (11744735_a_at) / RFU CCDC152 (11751479_a_at) / Fold change /veh CCDC152 (11751479_a_at) / RFU FAM211A (11726209_a_at) / Fold change /veh FAM211A (11726209_a_at) / RFU RGS16 (11746705_a_at) / Fold change /veh RGS16 (11746705_a_at) / RFU VCAN (11755009_s_at) / Fold change /veh VCAN (11755009_s_at) / RFU RHOB (11743442_s_at) / Fold change /veh RHOB (11743442_s_at) / RFU RGS16 (11720943_a_at) / Fold change /veh RGS16 (11720943_a_at) / RFU RGS16 (11720944_at) / Fold change /veh RGS16 (11720944_at) / RFU, VPS4B / Fold change vs veh, VPS4B / RFU, CREB1 / Fold change vs veh, CREB1 / RFU, DNAJC13 / Fold change vs veh, DNAJC13 / RFU, GNAQ / Fold change vs veh, GNAQ / RFU, CDK5R1 / Fold change vs veh, CDK5R1 / RFU, ZRANB3 / Fold change vs veh, ZRANB3 / RFU, CUL4A / Fold change vs veh, CUL4A / RFU, CCNY / Fold change vs veh, CCNY / RFU, UFL1 / Fold change vs veh, UFL1 / RFU, COG3 / Fold change vs veh, COG3 / RFU, DIAPH2 / Fold change vs veh, DIAPH2 / RFU, SKA2 / Fold change vs veh, SKA2 / RFU, AFF3 / Fold change vs veh, AFF3 / RFU, LMF1 / Fold change vs veh, LMF1 / RFU, IPO11 / Fold change vs veh, IPO11 / RFU, DFFB / Fold change vs veh, DFFB / RFU, FOXP1 / Fold change vs veh, FOXP1 / RFU, CARD8 / Fold change vs veh, CARD8 / RFU, STRN3 / Fold change vs veh, STRN3 / RFU, ADK / Fold change vs veh, ADK / RFU, RASSF2 / Fold change vs veh, RASSF2 / RFU, WIPF1 / Fold change vs veh, WIPF1 / RFU, LARP1B / Fold change vs veh, LARP1B / RFU, RASA1 / Fold change vs veh, RASA1 / RFU, RB1 / Fold change vs veh, RB1 / RFU, PPFIA1 / Fold change vs veh, PPFIA1 / RFU, MAT2A / Fold change vs veh, MAT2A / RFU, CCT5 / Fold change vs veh, CCT5 / RFU, WDR92 / Fold change vs veh, WDR92 / RFU, CUX1 / Fold change vs veh, CUX1 / RFU, TTC7A / Fold change vs veh, TTC7A / RFU, TMEM135 / Fold change vs veh, TMEM135 / RFU, DEPTOR / Fold change vs veh, DEPTOR / RFU, CPM / Fold change vs veh, CPM / RFU, DNAJB6 / Fold change vs veh, DNAJB6 / RFU, CACNA2D3 / Fold change vs veh, CACNA2D3 / RFU, DTX4 / Fold change vs veh, DTX4 / RFU, TFCP2 / Fold change vs veh, TFCP2 / RFU, GMCL1 /// GMCL1P1 / Fold change vs veh, GMCL1 /// GMCL1P1 / RFU, AEBP2 / Fold change vs veh, AEBP2 / RFU, SNHG1 /// SNORD22 /// SNORD25 /// SNORD26 /// SNORD27 /// SNORD28 /// SNORD29 /// SNORD31 / Fold change vs veh, SNHG1 /// SNORD22 /// SNORD25 /// SNORD26 /// SNORD27 /// SNORD28 /// SNORD29 /// SNORD31 / Fold change (Aza/veh), C12orf56 (ProbeSet 11735607_a_at) / Fold change (ACY-1035/veh), C12orf56 (ProbeSet 11735607_a_at) / Fold change (Aza/veh), FGFR1OP (ProbeSet 11751329_s_at) / Fold change (ACY-1035/veh), FGFR1OP (ProbeSet 11751329_s_at) / Fold change (Aza/veh), VPS36 (ProbeSet 11739960_a_at) / Fold change (ACY-1035/veh), VPS36 (ProbeSet 11739960_a_at) / RFU SYPL1 (11715823_x_at) / Fold change /veh SYPL1 (11715823_x_at) / RFU IGFBP7 (11715501_s_at) / Fold change /veh IGFBP7 (11715501_s_at) / RFU REEP3 (11722064_at) / Fold change /veh REEP3 (11722064_at) / RFU IGLL1 (11728026_x_at) / Fold change /veh IGLL1 (11728026_x_at): dose or concentration left out as unconfirmed
Settings: MV-4-11 cells, 48 hours

Nc1ncn([C@@H]2O[C@H](CO)[C@@H](O)[C@H]2O)c(=O)n1 [azacitidine]
RFU ISYNA1 (11749810_s_at): 23.56 RFU
